# Reference: patent US20150202304A1, “ENCAPSULATION OF IMMISCIBLE PHASES IN SILK FIBROIN BIOMATERIALS” (TUFTS UNIVERSITY, priority 2012, published 2015)
# Assay: Release of adenosine from dissolvable silk films in PBS
# Assay type: physicochemical
# Conditions: within 15 minutes of exposure to 37° C. PBS; ~0.5, 0.25 or 0.125 mg adenosine per 0.2 mm^2 film
# Experimental: Rapid dissolution of films loaded with a dye and release of the dye from the films occur when the films are immersed in ˜37° C. buffer (FIG. 10). Dissolvable silk films loaded with an active agent (e.g., ˜0.5, 0.25 or 0.125 mg of adenosine per 0.2 mm^2 film) released the majority of the drug load (approx. 80%) within 15 minutes of exposure to 37° C. phosphate buffered saline (PBS) (Data not shown).
compound,measurement,value
Nc1ncnc2c1ncn2[C@@H]1O[C@H](CO)[C@@H](O)[C@H]1O [adenosine],drug load released from dissolvable silk films,approx. 80%
